Source: patent EP1534672B1, “RETINOL DERIVATIVES, THEIR USE IN THE TREATMENT OF CANCER AND FOR POTENTIATING THE EFFICACY OF OTHER CYTOTOXIC AGENTS” (priority 2002, dated 2004)

System: Human Breast Adenocarcinoma Cell Line MDA-MB-231
Assay: Drug cytotoxicity testing (viable cell count, trypan blue exclusion, cell growth inhibition)
Format: cell-based
Conditions: Homo sapiens, MDA-MB-231, 48 h, compound alone, final concentration 10^-7 mol/L; working solutions in MEM with 5% FBS; two days; read-out: cell growth inhibition
Protocol: MDA-MB-231 cells were propagated in MEM culture medium with 2 mM L-glutamine, 10% heat-inactivated fetal bovine serum (FBS) and antibiotics. DU 145 cells were cultured in MEM culture medium containing 2 mM L-glutamine, 1 mM sodium pyruvate, 10% FBS and antibiotics. SKOV-3 cells were cultured in McCoy's 5A culture medium, supplemented with 1,5 mM L-glutamine, 10% FBS and antibiotics. A549 cells were cultured in Ham's F-12 culture medium with 1 mM L-glutamine, 10% FBS and antibiotics. All media and supplements were purchased from Sigma-Aldrich (St.Louis, MO, USA). Cell propagation of all lines was carried out in Falcon™ 25 cm^2 cultivation flasks (Becton Dickinson Labware).
Drug cytotoxicity testing was carried out with using Falcon™ 96-well cultivation plates for adherent cells (Becton Dickinson Labware). These plates were seeded by cells either at 12 × 10^3 MDA-MB-231 cells/well, or at 12 × 10^3 DU 145 cells/well, or at 14 × 10^3 SKOV-3 cells/well, or at 10 × 10^3 A549 cells/well in a volume of 200 µL/well.
The cell cultures in cultivation plates were allowed to adhere for 24 hour of incubation. On day 1 after cell seeding, 2 µL solutions of the drugs to be tested in medium with 5% FBS was added to the cultures. In the control cultures, 2 µL of medium with 5% FBS was added as solvent control. The cells were incubated for 2 consecutive days. At the end of the incubation period adherent cells were detached by trypsinization and the number of viable cells was counted using trypan blue exclusion test and a hemocytometer. All data were derived from an average of three determinations each in six replicates. The results were expressed as mean cell number ± SE and the differences between control and test series evaluated by means of Student's t-test. The drug cytotoxicity was evaluated based on the extent of cell growth inhibition. The cell growth inhibition of the tested drugs was calculated as follows: Cell growth inhibition,% = (Control-TestSeries)/(Control) × 100 [formula]
In the case of comparative evaluation of cytotoxicity of the inventive compounds themselves and the formulation related to consecutive dilutions of their initial solutions before adding to the cultures, 2 µL solutions of the drugs to be tested in medium with 5% FBS, in normal saline and in saline with 2,3 mM CaCl2 were added to the cultures. In control cultures, 2 µL of medium with 5% FBS, normal saline and saline with 2,3 mM CaCl2 were added as solvent controls (negative controls). […] Therefore an average of negative controls was calculated. […] Therefore an average of positive controls was calculated (for each antibiotic).

| SMILES | inhibition at 0.1 µM [%] |
| --- | --- |
| CC1=C(/C=C/C(C)=C/C=C/C(C)=C\C(=O)N[C@@H](CS(=O)(=O)O)C(N)=O)C(C)(C)CCC1 [compound II-1f, N-(13-cis-retinoyl)-L-cysteic acid amide] | 53.2 |

Same assay, conditions: Homo sapiens, MDA-MB-231, 48 h, compound alone, final concentration 10^-8 mol/L; working solutions in MEM with 5% FBS; two days; read-out: cell growth inhibition

| SMILES | inhibition at 0.01 µM [%] |
| --- | --- |
| CC1=C(/C=C/C(C)=C/C=C/C(C)=C\C(=O)N[C@@H](CS(=O)(=O)O)C(N)=O)C(C)(C)CCC1 [compound II-1f, N-(13-cis-retinoyl)-L-cysteic acid amide] | 49.8 |

Same assay, conditions: Homo sapiens, MDA-MB-231, 48 h, compound alone, final concentration 10^-9 mol/L; working solutions in MEM with 5% FBS; two days; read-out: cell growth inhibition

| SMILES | inhibition at 0.001 µM [%] |
| --- | --- |
| CC1=C(/C=C/C(C)=C/C=C/C(C)=C\C(=O)N[C@@H](CS(=O)(=O)O)C(N)=O)C(C)(C)CCC1 [compound II-1f, N-(13-cis-retinoyl)-L-cysteic acid amide] | 45.1 |

Same assay, conditions: Homo sapiens, MDA-MB-231, compound alone 10^-7 mol/L, in B (normal saline); read-out: cell growth inhibition

| SMILES | inhibition at 0.1 µM [%] |
| --- | --- |
| CC1=C(/C=C/C(C)=C/C=C/C(C)=C\C(=O)N[C@@H](CS(=O)(=O)O)C(N)=O)C(C)(C)CCC1 [compound II-1f, N-(13-cis-retinoyl)-L-cysteic acid amide] | 45.8 |

Same assay, conditions: Homo sapiens, MDA-MB-231, compound alone 10^-7 mol/L; read-out: Cell growth inhibition in A compared to that in B was increased by

| SMILES | inhibition at 0.1 µM [%] |
| --- | --- |
| CC1=C(/C=C/C(C)=C/C=C/C(C)=C\C(=O)N[C@@H](CS(=O)(=O)O)C(N)=O)C(C)(C)CCC1 [compound II-1f, N-(13-cis-retinoyl)-L-cysteic acid amide] | 15.4 |

Same assay, conditions: Homo sapiens, MDA-MB-231, compound alone 10^-8 mol/L, in A (saline with […] CaCl2); read-out: cell growth inhibition

| SMILES | inhibition at 0.01 µM [%] |
| --- | --- |
| CC1=C(/C=C/C(C)=C/C=C/C(C)=C\C(=O)N[C@@H](CS(=O)(=O)O)C(N)=O)C(C)(C)CCC1 [compound II-1f, N-(13-cis-retinoyl)-L-cysteic acid amide] | 47.4 |

Same assay, conditions: Homo sapiens, MDA-MB-231, compound alone 10^-8 mol/L, in B (normal saline); read-out: cell growth inhibition

| SMILES | inhibition at 0.01 µM [%] |
| --- | --- |
| CC1=C(/C=C/C(C)=C/C=C/C(C)=C\C(=O)N[C@@H](CS(=O)(=O)O)C(N)=O)C(C)(C)CCC1 [compound II-1f, N-(13-cis-retinoyl)-L-cysteic acid amide] | 37.3 |

Same assay, conditions: Homo sapiens, MDA-MB-231, compound alone 10^-8 mol/L; read-out: Cell growth inhibition in A compared to that in B was increased by

| SMILES | inhibition at 0.01 µM [%] |
| --- | --- |
| CC1=C(/C=C/C(C)=C/C=C/C(C)=C\C(=O)N[C@@H](CS(=O)(=O)O)C(N)=O)C(C)(C)CCC1 [compound II-1f, N-(13-cis-retinoyl)-L-cysteic acid amide] | 16.1 |

Same assay, conditions: Homo sapiens, MDA-MB-231, compound alone 10^-9 mol/L, in A (saline with […] CaCl2); read-out: cell growth inhibition

| SMILES | inhibition at 0.001 µM [%] |
| --- | --- |
| CC1=C(/C=C/C(C)=C/C=C/C(C)=C\C(=O)N[C@@H](CS(=O)(=O)O)C(N)=O)C(C)(C)CCC1 [compound II-1f, N-(13-cis-retinoyl)-L-cysteic acid amide] | 40.1 |

Same assay, conditions: Homo sapiens, MDA-MB-231, compound alone 10^-9 mol/L, in B (normal saline); read-out: cell growth inhibition

| SMILES | inhibition at 0.001 µM [%] |
| --- | --- |
| CC1=C(/C=C/C(C)=C/C=C/C(C)=C\C(=O)N[C@@H](CS(=O)(=O)O)C(N)=O)C(C)(C)CCC1 [compound II-1f, N-(13-cis-retinoyl)-L-cysteic acid amide] | 27.2 |

Same assay, conditions: Homo sapiens, MDA-MB-231, compound alone 10^-9 mol/L; read-out: Cell growth inhibition in A compared to that in B was increased by

| SMILES | inhibition at 0.001 µM [%] |
| --- | --- |
| CC1=C(/C=C/C(C)=C/C=C/C(C)=C\C(=O)N[C@@H](CS(=O)(=O)O)C(N)=O)C(C)(C)CCC1 [compound II-1f, N-(13-cis-retinoyl)-L-cysteic acid amide] | 17.7 |

Same assay, conditions: compound alone 10^-7 mol/L, in B (normal saline)

| SMILES | number of viable cells |
| --- | --- |
| CC1=C(/C=C/C(C)=C/C=C/C(C)=C\C(=O)N[C@@H](CS(=O)(=O)O)C(N)=O)C(C)(C)CCC1 [compound II-1f, N-(13-cis-retinoyl)-L-cysteic acid amide] | 31.1 ± 0.96 × 10^3 |

Same assay, conditions: compound alone 10^-8 mol/L, in B (normal saline)

| SMILES | number of viable cells |
| --- | --- |
| CC1=C(/C=C/C(C)=C/C=C/C(C)=C\C(=O)N[C@@H](CS(=O)(=O)O)C(N)=O)C(C)(C)CCC1 [compound II-1f, N-(13-cis-retinoyl)-L-cysteic acid amide] | 36.0 ± 1.28 × 10^3 |

Same assay, conditions: compound alone 10^-9 mol/L, in B (normal saline)

| SMILES | number of viable cells |
| --- | --- |
| CC1=C(/C=C/C(C)=C/C=C/C(C)=C\C(=O)N[C@@H](CS(=O)(=O)O)C(N)=O)C(C)(C)CCC1 [compound II-1f, N-(13-cis-retinoyl)-L-cysteic acid amide] | 41.8 ± 1.46 × 10^3 |

Same assay, conditions: compound alone, final concentration 10^-7 mol/L; working solutions in MEM with 5% FBS; two days

| SMILES | number of viable cells |
| --- | --- |
| CC1=C(/C=C/C(C)=C/C=C/C(C)=C\C(=O)N[C@@H](CS(=O)(=O)O)C(N)=O)C(C)(C)CCC1 [compound II-1f, N-(13-cis-retinoyl)-L-cysteic acid amide] | 26.6 ± 1.83 × 10^3 |

Same assay, conditions: compound alone, final concentration 10^-8 mol/L; working solutions in MEM with 5% FBS; two days

| SMILES | number of viable cells |
| --- | --- |
| CC1=C(/C=C/C(C)=C/C=C/C(C)=C\C(=O)N[C@@H](CS(=O)(=O)O)C(N)=O)C(C)(C)CCC1 [compound II-1f, N-(13-cis-retinoyl)-L-cysteic acid amide] | 28.5 ± 2.13 × 10^3 |

Same assay, conditions: compound alone, final concentration 10^-9 mol/L; working solutions in MEM with 5% FBS; two days

| SMILES | number of viable cells |
| --- | --- |
| CC1=C(/C=C/C(C)=C/C=C/C(C)=C\C(=O)N[C@@H](CS(=O)(=O)O)C(N)=O)C(C)(C)CCC1 [compound II-1f, N-(13-cis-retinoyl)-L-cysteic acid amide] | 31.2 ± 2.42 × 10^3 |

Same assay, conditions: sodium salt, range 10^-9 to 10^-7 M

| SMILES | cell growth inhibition in (A) compared to compound in B [%] |
| --- | --- |
| CC1=C(/C=C/C(C)=C/C=C/C(C)=C\C(=O)N[C@@H](CS(=O)(=O)O)C(N)=O)C(C)(C)CCC1 [compound II-1f, N-(13-cis-retinoyl)-L-cysteic acid amide] | ~15 |

Same assay, conditions: sodium salt, range 10^-9 to 10^-7 M, dilution in normal saline (B)

| SMILES | cell growth inhibition reached on increase of the concentration, in (B) [%] |
| --- | --- |
| CC1=C(/C=C/C(C)=C/C=C/C(C)=C\C(=O)N[C@@H](CS(=O)(=O)O)C(N)=O)C(C)(C)CCC1 [compound II-1f, N-(13-cis-retinoyl)-L-cysteic acid amide] | ~46 |

System: not given
Assay: not given
Conditions: rat, in vivo, ip

| SMILES | minimal lethal dose |
| --- | --- |
| CC1=C(/C=C/C(C)=C/C=C/C(C)=C\C(=O)N[C@@H](CS(=O)(=O)O)C(N)=O)C(C)(C)CCC1 [compound II-1f, N-(13-cis-retinoyl)-L-cysteic acid amide] | above 100 mg/kg body weight |

Same assay, conditions: rat, in vivo, ip, 100 mg/kg

| SMILES | mortality |
| --- | --- |
| CC1=C(/C=C/C(C)=C/C=C/C(C)=C\C(=O)N[C@@H](CS(=O)(=O)O)C(N)=O)C(C)(C)CCC1 [compound II-1f, N-(13-cis-retinoyl)-L-cysteic acid amide] | did not produce mortality |
